Values quoted from earlier work as cited in US11197860B2 (Eli Lilly and Company, priority 2018, dated 2021).

Legend:
[1] = phase 3 trials; EMA Assessment Report for Olumiant
[2] = patients in clinical trials; ALT and AST increases to >=5x and >=10x ULN observed
[3] = PBC patients; Nevens et al. 2016

| SMILES | patient's ALP after treatment [1] | incidence of liver enzyme elevation compared to placebo [2] | pruritus (adverse effect) [3] |
| --- | --- | --- | --- |
| CCS(=O)(=O)N1CC(CC#N)(n2cc(-c3ncnc4[nH]ccc34)cn2)C1 [baricitinib, {1-(ethylsulfonyl)-3-[4-(7H-pyrrolo[2,3-d]pyrimidin-4-yl)-1H-pyrazol-1-yl]azetidin-3-yl}acetonitrile] | ALP decreased after treatment | increased incidence of liver enzyme elevation compared to placebo |  |
| CC[C@H]1[C@@H](O)[C@@H]2[C@H](CC[C@]3(C)[C@@H]([C@H](C)CCC(=O)O)CC[C@@H]23)[C@@]2(C)CC[C@@H](O)C[C@@H]12 [obeticholic acid, Obeticholic acid] |  |  | associated with increased pruritus |
